# What was measured:
# [1] = tested on: mice challenged with LPS; experiment: Murine model of LPS-induced severe inflammation; format: in vivo, BALB/c mice; settings: LPS 20 mg/kg IP; LCC-12 0.3 mg/kg IP; dexamethasone 10 mg/kg PO as comparator; FIG. 4D
# Procedure: Murine model of LPS-induced severe inflammation. Animal work was conducted at Fidelta Ltd according to 2010/63/EU and National legislation regulating the use of laboratory animals in scientific research and for other purposes (Official Gazette 55/13). An Institutional Committee on Animal Research Ethics (CARE-Zg) oversaw that animal-related procedures were not compromising the animal welfare. LPS (Sigma-Aldrich, L2630, 20 mg/kg) was injected intraperitoneally to male BALB/c mice (8 weeks-old). LCC-12 (0.3 mg/kg, IP, n=10) or vehicle (0.9% NaCl, 10 mL/kg, IP, n=10) were injected 2 h prior LPS challenge, then 24 h, 48 h, 72 h and 96 h post challenge. Dexamethasone (10 mg/kg, PO, n=10) was given 1 h prior LPS challenge. Incidence of mortality was monitored every 4 h up to 48 h, then twice daily.
# [2] = tested on: HMLER CD44^high/CD24^low; experiment: Cell viability assay (CellTiter-Blue) on breast cancer stem cell model HMLER CD44high/CD24low; format: cell-based, human
# Procedure: (§1) Cell viability assay (IC50). Cell viability assay was carried out by plating 1000 cells/well in 96-well plates. Cells were treated for 72 h in a range between to 25 nM and […] using serial dilutions. The inventors followed the manufacturer's protocol. In brief, CellTiter-Blue® reagent (G8081, Promega) was added after 72 h treatment and cells were incubated for 3 h before recording fluorescence intensities (λex. 560/20 nm; λem. 590/10 nm) using a Perkin Elmer Wallac 1420 Victor2 Microplate Reader.
# Cell culture. MCF7 (ATCC) cells, DU-145 (ATCC) cells and FC1245 cells were cultured in Dulbecco's Modified Eagle Medium GlutaMAX (DMEM, ThermoFisher Scientific, 61965059) supplemented with 10% Fetal Bovine Serum (FBS, Gibco, 10270-106) and Penicillin-Streptomycin mixture (BioWhittaker/Lonza, DE17-602E) unless stated otherwise. Primary lung circulating tumor cells (Celprogen, 36107-34CTC, Lot 219411) were grown using stem cell complete media (Celprogen, M36102-29PS) until the third passage. Circulating cancer cells were grown in stem cell ECM T75-flasks (Celprogen, E36102-29-T75) and ECM 6-well plates (Celprogen, E36102-29-6Well). HMLER cells ([…]) naturally repressing E-cadherin, obtained from human mammary epithelial cells infected with a retrovirus carrying hTERT, SV40 and the oncogenic allele H-rasV12, and HMLER CD44 and TFRC ko clones were cultured in DMEM/F12 (Thermo Fisher Scientific, 31331093) supplemented with 10% FBS (Thermo Fisher Scientific, 10270106), 10 μg/mL insulin (Sigma-Aldrich, 10516), 0.5 μg/mL hydrocortisone (Sigma-Aldrich, H0888) and 0.5 μg/mL puromycin (Life Technologies, A11138-02), unless stated otherwise. HMLER CD44^high cells were also supplemented with 10 ng/mL EGF (Miltenyi Biotech, 130-097-750).
# [3] = tested on: lymphocytes (CD4, CD8); experiment: Activation of CD4 and CD8 lymphocytes (CD25, CD69 flow cytometry); format: cell-based, human; settings: LCC-12 10 μM, 48 h, CD3/CD28 activation; FIG. 6A-B
# Procedure: (§2) CD4 Lymphocytes. Peripheral blood samples were collected from healthy donors (Etablissement Français du Sang). CD4 lymphocytes were isolated by negative magnetic sorting using microbeads according to the manufacturer's instructions (Miltenyi Biotec, 130-096-533) and cultured in RPM11640 supplemented with glutamine and 10% fetal bovine serum. CD4 lymphocytes were activated for 48 h using CD3/CD28 antibodies (2.5 μg/mL), in presence of LCC-12 (10 μM). The activation status of the lymphocytes was assessed by measuring CD25 and CD69 surface markers by flow cytometry.
# as §2, with “CD8” for “CD4”, “130-096-495)” for “130-096-533)”, “activated” for “activated for”
# [4] = tested on: neutrophils; experiment: Activation of neutrophils (CD64, CD66b flow cytometry); format: cell-based, human; settings: LCC-12 10 μM, 1 h, LPS; FIG. 6C
# Procedure: Neutrophils. Peripheral blood samples were collected from healthy donors (Etablissement Français du Sang). Then, red cells in whole blood samples were lysed (ebioscience 10×RBC lysis buffer, 00-4300-54). The remaining cells were cultured in RPMI 1640 supplemented with glutamine, and 2% human serum, and activated 1 h with LPS (2 μg/mL) in presence of LCC-12 (10 μM). The granulocytes/neutrophils population was determined by flow cytometry using FSC, SSC and CD15 surface marker. The activation status of the granulocytes was assessed by measuring CD64 and CD66b surface markers by flow cytometry.
# [5] = tested on: MCF7, FC1242 and DU-145 cells; experiment: Cell viability in epithelial versus mesenchymal state (TGF-β or OSM induced EMT); format: cell-based, human, mouse; settings: EMT induced with TGF-β or OSM; FIG. 7
# Procedure: as §1
# Cell culture. MCF7 (ATCC) cells, DU-145 (ATCC) cells and FC1245 cells were cultured in Dulbecco's Modified Eagle Medium GlutaMAX (DMEM, ThermoFisher Scientific, 61965059) supplemented with 10% Fetal Bovine Serum (FBS, Gibco, 10270-106) and Penicillin-Streptomycin mixture (BioWhittaker/Lonza, DE17-602E) unless stated otherwise. Primary lung circulating tumor cells (Celprogen, 36107-34CTC, Lot 219411) were grown using stem cell complete media (Celprogen, M36102-29PS) until the third passage. Circulating cancer cells were grown in stem cell ECM T75-flasks (Celprogen, E36102-29-T75) and ECM 6-well plates (Celprogen, E36102-29-6Well). […]
# [6] = Maximum tolerated dose; settings: stated relative to the 0.3 mg/kg/day dose used
# [7] = tested on: monocytes; experiment: Activation of monocytes (CD25, CD80 flow cytometry); format: cell-based, human; settings: LCC-12 10 μM, 24 h, LPS; FIG. 6D
# Procedure: Monocytes. Peripheral blood samples were collected from healthy donors (Etablissement Français du Sang). Pan monocytes were isolated by negative magnetic sorting using microbeads according to the manufacturer's instructions (Miltenyi Biotec, 130-096-537), and cultured in RPMI 1640 supplemented with glutamine, 10% fetal bovine serum. Monocytes were treated with lipopolysaccharides (LPS, 100 ng/mL, 24 h) to generate activated monocytes and were co-treated with LCC-12 (in-house, 10 μM, 24 h). The activation status of the monocytes was assessed by measuring CD25 and CD80 surface markers by flow cytometry.
smiles,measurement,setting,value
"N=C(N)NC(=N)NCCCCCCCCCCCCNC(=N)NC(=N)N [LCC-12, lipophilic copper clamp C12]",survival of mice challenged with LPS,[1],increased the survival of mice challenged with LPS to a similar extent than dexamethasone
same,improved IC50 compared with metformin,[2]; HMLER CD44high/CD24low,more than 2800 fold
same,IC50,"[2]; Homo sapiens, cell viability, 72 h treatment, read-out: IC50 against HMLER CD44^high/CD24^low",8 µM
same,activation of lymphocytes,[3],decreases the activation
same,activation of neutrophils in vitro,[4],does not impact the activation
same,IC50-values in mesenchymal state compared to epithelial counterpart,[5],lower IC50-values in cells in the mesenchymal state compared to the epithelial counterpart
same,maximum tolerated dose (MTD),[6],"0.3 mg/kg/day, a dose 10 times lower than the maximum tolerated dose"
same,activation of monocytes,[7],decreases the activation

# From patent publication US20230416196A1, “DIMER OF BIGUANIDINES AND THEIR THERAPEUTIC USES” (INSTITUT CURIE, priority 2020, published 2023)
